From PubChem BioAssay (NCI) come the findings set out here.

Each structure is given as a SMILES string.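 Dose response: 5 concentrations. Exposure: 48 h. Format: 96-well plates. Endpoint: linear interpolation; highest concentration if not reached. GI50 is the concentration that inhibits growth by half. Definition used: TGI = concentration required for complete inhibition of growth.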 A value given as a limit tells only on which side of the number the result lay.

This test deals with MDA-MB-468 breast. Briefly: DTP human tumour cell line panel, 48 h.

For `Fc1cc(Nc2ccc3c(OCCCN4CCOCC4)cccc3n2)ccc1Cl`, the GI50 is 2.08 µM and the TGI came to 4.43 µM.
For `CCOc1ccc(N2C(N)=NC(N)=NC2(C)C)cc1`, in that order: 20.8 µM and over 100 µM.
For `O=C(N/N=C\c1cc(Cl)ccc1O)N/N=C/c1cc(Cl)ccc1O`, in that order: 2.58 µM and over 100 µM.
In the same order, the values of `O=C(/C=C/c1cccs1)Nc1ncc(Cc2ccccc2F)s1` are 0.364 µM and over 100 µM.
`CCn1cc(C2NC(=O)c3cc(F)ccc3N2)c2cccc(Cl)c21` (stereo not drawn): the 50% growth inhibitory concentration (GI50) is 0.292 µM and the TGI came to 6.13 µM.
In the same order, the values of `C=C(C)[C@@H]1CC[C@]2(C#N)CC[C@]3(C)[C@H](CC[C@@H]4[C@@]5(C)CCCNC(C)(C)[C@@H]5CC[C@]43C)[C@@H]12` are 1.75 µM and 3.21 µM.
With `Cc1ccc(Nc2ccnc(Nc3cccc(C(N)=O)c3)n2)cc1O`, the GI50 was 2.62 µM and the TGI stood at 9.56 µM.
In the same order, the values of `Fc1ccc(-c2c(-c3ccncc3)n(CCN3CCOCC3)c3cccnc23)cc1` are over 25 µM and over 25 µM.
For `COc1cc(Nc2ncc(-c3ccccc3)o2)cc(OC)c1OC`, the concentration for 50% growth inhibition (GI50) was 0.0744 µM and the TGI was 1.1 µM.
In the same order, the values of `COc1ccccc1OCC(O)CO` (stereo not drawn) are over 100 µM and over 100 µM.
For `CC(C)=CCC[C@](C)(O)[C@H]1CC[C@]2(C)[C@@H]1CC[C@@H]1[C@@]3(C)CC[C@H](OC(=O)CCC(=O)O)C(C)(C)[C@@H]3CC[C@]12C`, in that order: 22.3 µM and 96.1 µM.
As to `COc1cc(C(=O)c2c(-c3ccccc3)oc3ccccc23)cc(OC)c1O`, the GI50 is 0.362 µM and the concentration for total growth inhibition (TGI) is 3.48 µM.
With `NC(=O)c1ccc(-c2c3ccccc3cc3c2ccc2ccccc23)cc1`, the GI50 is 1.34 µM and the TGI was 6.97 µM.
Take `CCNC1=CC(=O)c2ncccc2C1=O`: the GI50 is 2.11 µM and the concentration for total growth inhibition (TGI) was determined as 7.55 µM.
Regarding `COCCn1cc(-c2csc(-c3c[nH]c4ccc(F)cc34)n2)c2cccnc21`, the GI50 was 2.44 µM and the TGI turned out to be 8.51 µM.
In the same order, the values of `CN1C=CN(Cc2ccc(-c3ccccn3)nc2)[CH-]1.CN1C=CN(Cc2ccc(-c3ccccn3)nc2)[CH-]1.[Au+3]` are 0.337 µM and 2.53 µM.
For `COc1cc(SC)ccc1C(=O)N1CCCC(C)C1` (stereo not drawn), the GI50 was 26.1 µM and the TGI was over 100 µM.
In the same order, the values of `O=C(O)c1c(Cl)c(Cl)c(Cl)c(Cl)c1-c1c2cc(I)c(=O)c(I)c-2oc2c(I)c(O)c(I)cc12` are 36.9 µM and 76.2 µM.
In the same order, the values of `NC(=NC1C2CC3CC(C2)CC1C3)Nc1ccc(I)cc1` (stereo not drawn) are 1.96 µM and 4.68 µM.
In the same order, the values of `Cc1cc(C#Cc2ccccc2)ccc1-n1c(/C=C/c2ccc(O)cc2)nc2ccccc2c1=O` are 3.78 µM and over 100 µM.
`CCN(CC)c1ccc(/C=N\NC(=O)c2cccc(Nc3ccnc(C(F)(F)F)c3)c2)c(O)c1`: the GI50 is 0.239 µM and the TGI stood at 3.51 µM.
In the same order, the values of `Cn1cc(/C=C2\C(=O)Nc3cccnc32)c2ccccc21` are 12 µM and over 25 µM.
For `O=c1c2c(=NCCCN3CCCC3)cc3c(=O)n(CCCN4CCCC4)c(=O)c4c(NCCCN5CCCC5)cc(c(O)n1CCCN1CCCC1)c2c4-3`, in that order: 1.74 µM and 4.68 µM.
With `O=C(Nc1ccc(-c2nc3ccc(NC(=O)c4ccc(Cl)cc4)cc3[nH]2)cc1)c1ccc(Cl)cc1`, the GI50 was 2.58 µM and the TGI amounted to 8.45 µM.
Consider `CCc1ccc(/C=C2/SC(=S)NC2=O)cc1`, for which the GI50 was 20.3 µM and the TGI was 69.4 µM.
On to `COc1cc([N+](=O)[O-])c2ncccc2c1O`, for which the GI50 is 35.6 µM and the TGI was over 100 µM.
`N#CC(C#N)=C/C=C/c1cccc([N+](=O)[O-])c1`: the GI50 was 0.767 µM and the TGI amounted to 2.28 µM.
In the same order, the values of `Brc1ccc2[nH]cc(-c3nc(-c4c[nH]c5ccncc45)cs3)c2c1` are 1.77 µM and 3.45 µM.
In the same order, the values of `O=C(O)CCN1C(=O)/C(=C/C(Cl)=C/c2ccccc2)SC1=S` are 1.2 µM and 2.98 µM.

Broadly, the GI50 is the concentration at which growth is held to half of that of the control. As usually defined, the TGI is the concentration giving total growth inhibition. Lower therefore signals more potent growth arrest.
